The record followed here is US20240391900A1, “RIP1 KINASE INHIBITOR AND USE THEREOF” (SIRONAX (BEIJING) CO., LTD., priority 2021, published 2024).

The structures appear in SMILES notation.

The assay concerns HT-29 human colon cancer cells. As to the kind of experiment: In vitro biological activity assay: inhibition of TNFα/SmacM/Z_VAD FMK-induced programmed necrosis, CellTiter-Glo viability. The assay is classed as cell-based. The conditions noted are these: HT-29 cells, necrosis induced with TNF-α 100 ng/mL, SmacM 100 nM, Z_VAD-FMK 10 μM, overnight, cell viability by chemiluminescence. How it is done:
In order to verify the inhibitory effect of the compounds of the present disclosure on programmed necrosis at the cellular level, a type of cells closely related to the RIP1 pathway, namely HT-29 human colon cancer cells, were selected. The used activation mode is a combination of tumor necrosis factor (TNFα), cysteine aspartate activator mimic (SmacM) and pan-caspase inhibitor Z_VAD FMK, and the cell viability was calculated by detecting chemiluminescence values, thus obtaining the biological activity of the compound inhibiting the programmed necrosis of cells.
Cell line: HT-29 (ATCC® HTB-38™)
• 2.1. The Growth Status of HT-29 Cells was Regularly Checked to Ensure their Normal Growth. • 2.2. McCOY's 5A culture medium containing 10% FBS was preheated in a 37° C. water bath for 30 minutes. When the culture medium was ready for use, the cell passage and inoculation was performed in a Class II safety cabinet with aseptic technique. • 2.3. In a T75 culture flask, when the growth density of cells reached the abundance of approximately 80%, the culture medium was aspirated and cells were washed twice with pre-warmed PBS. • 2.4. 2-3 mL of trypsin (Gibco, catalog number 25200-056) was added and the T75 culture flask was transferred to a 37° C. incubator. • 2.5. After 3-5 minutes, the side of the culture flask was tapped and examined under a microscope for detachment of the cells to the flask. If necessary, the cells were placed back into the incubator to wait for another 5-10 minutes until 85% of the cells were detached from each other. • 2.6. 6-9 mL of complete cell culture medium was quickly added to terminate the trypsin reaction, and then the cells were transferred to a sterile 15 mL centrifuge tube. The cells were pelleted by centrifugation at 300 g for 5-7 minutes in a centrifuge, and then the supernatant was decanted. • 2.7. The cells were resuspended in 10 mL of fresh cell culture medium and the cells were counted by using a hemocytometer. • 2.8. 3,000 cells contained in 100 μL were inoculated into each well of a sterile 96-well cell culture plate (Corning 3903) and cultured overnight at 37° C. under 5% CO2.
• 3.1. All batches of compounds were dissolved in dimethyl sulfoxide (DMSO) to prepare a 20 mM stock. • 3.2. 3 μL of 20 mM stock of each compound was added to 27 μL of DMSO and mixed thoroughly, and then diluted at a dilution ratio of […] (20 μL compound+40 μL DMSO) until the 10-12 points ended. After the compounds were diluted, they were set aside for use. • 3.3. The cell culture plate was taken out from the incubator, washed once with PBS, and replaced with a fresh culture medium free of serum. A mixture of TNF-α (100 ng/mL), SMAC mimic (SmacM, 100 nM) and Z_VAD-FMK (10 μM) was added to induce the programmed necrosis in HT-29 cells. • 3.4. The compound dilution plate was prepared, 0.5 μL of the diluted compound was added to the corresponding 96-well plate, and mixed gently. Two duplicate wells were prepared for each compound. • 3.5. The treated 96-well plate to which the compounds had been added was placed back into the 37° C. incubator containing 5% CO2 and incubated overnight.
The luminescence cell viability detection kit was used to calculate the activity of the compound by measuring the ATP content in viable cells. • 4.1. The CellTiter-Glo® buffer and dry powdered substrate were equilibrated to room temperature before use. • 4.2. The CellTiter-Glo® substrate was resuspended with Cell Titer-Glo® buffer, then homogeneously mixed by gently vortexing. • 4.3. The cell culture plate was taken out and equilibrated at room temperature for 10 minutes (usually not suitable if more than 30 minutes). • 4.4. 20 μL of enzyme/substrate mixture was added into the 96-well assay plate with a multi-channel pipettor. • 4.5. The 96-well assay plate was placed on a shaker and the content was mixed for 2-3 minutes to promote the cell lysis. • 4.6. […]
As to `Cc1c(C#Cc2cnc(N)nc2)cncc1-n1cc2c(n1)C(c1ccccc1)CC2` (stereo not drawn) [Compound 43, 5-((4-methyl-5-(6-phenyl-5,6-dihydrocyclopenta[c]pyrazol-2 (4H)-yl)pyridine-3-yl)ethynyl)pyrimidin-2-amine], the EC50 was at most 0.1 µM.

Regarding `Nc1ncc(C#Cc2cncc(-n3cc4c(n3)[C@@H](c3cccc(F)c3)CC4)c2)cn1` [Compound 47, (R)-5-((5-(6-(3-fluorophenyl)-5,6-dihydrocyclopenta[c]pyrazol-2 (4H)-yl)pyridine-3-yl)ethynyl)pyrimidin-2-amine], the concentration for a half-maximal effect (EC50) was at most 0.1 µM.

For `C(#Cc1cnc2cccnn12)c1ccnc(-n2cc3c(n2)C(c2ccccc2)CC3)c1` (stereo not drawn) [Compound 27], the EC50 is at most 0.1 µM.

Take `Oc1cnc(C#Cc2cncc(-n3cc4c(n3)C(c3ccccc3)CC4)c2)cn1` (stereo not drawn) [Compound 12, 5-((5-(6-phenyl-5,6-dihydrocyclopenta[c]pyrazol-2 (4H)-yl)pyridin-3-yl)ethynyl)pyrazine-2-ol]: the concentration for a half-maximal effect (EC50) is above 1 µM.

On to `Cc1cnn(C)c1C#Cc1cccc(-n2cc3c(n2)C(c2ccccc2)CC3)c1` (stereo not drawn) [Compound 22, 2-(3-((1,4-dimethyl-1H-pyrazole-5-yl)ethynyl)phenyl)-6-phenyl-2,4,5,6-tetrahydrocyclopenta[c]pyrazole], for which the EC50 was at most 0.1 µM. For the compound `Nc1ncc(C#Cc2cncc(-n3cc4c(n3)[C@@H](c3cc(F)cc(F)c3)CC4)c2)cn1` [Compound 49, (R)-5-((5-(6-(3,5-difluorophenyl)-5,6-dihydrocyclopenta[c]pyrazol-2 (4H)-yl)pyridin-3-yl)ethynyl)pyrimidin-2-amine], the 50% effective concentration (EC50) was at most 0.1 µM. To `Nc1ncc(C#Cc2cncc(-n3cc4c(n3)C(c3cc(F)cc(F)c3)CC4)c2)cn1` (stereo not drawn) [Compound 48] belongs at most 0.1 µM.

As to `Cn1c(-n2nc3c(n2)C(c2cncc(F)c2)CC3)cc(C#Cc2cnc(N)nc2)cc1=O` (stereo not drawn) [Compound 59, 4-((2-aminopyrimidin-5-yl)ethynyl)-6-(4-(5-fluoropyridin-3-yl)-5,6-dihydrocyclopenta[d][1,2,3]triazol-2 (4H)-yl)-1-methylpyridin-2 (1H)-one], the EC50 was at most 0.1 µM. In the case of `Nc1ncc(C#Cc2c[nH]c(=O)c(-n3nc4c(n3)C(c3ccccc3)CC4)c2)cn1` (stereo not drawn) [Compound 60, 5-((2-aminopyrimidin-5-yl)ethynyl)-3-(4-phenyl-5,6-dihydrocyclopenta[d][1,2,3]triazol-2 (4H)-yl)pyridine-2 (1H)-one], the 50% effective concentration (EC50) was above 1 µM. With `N#Cc1cc(F)cc(C2CCc3cn(-c4cncc(C#Cc5cnc(N)nc5)c4)nc32)c1` (stereo not drawn) [Compound 20, 3-(2-(5-((2-aminopyrimidin-5-yl)ethynyl)pyridin-3-yl)-2,4,5,6-tetrahydrocyclopenta[c]pyrazol-6-yl)-5-fluorobenzonitrile], the half-maximal effective concentration (EC50) was at most 0.1 µM. On to `Cn1cc(C#Cc2cccc(-n3cc4c(n3)C(c3ccccc3)CC4)c2)cn1` (stereo not drawn) [Compound 25, 2-(3-((1-methyl-iH-pyrazole-4-yl)ethynyl)phenyl)-6-phenyl-2,4,5,6-tetrahydrocyclopenta[c]pyrazole], for which the EC50 is at most 0.1 µM. For `Cc1cncc(C#Cc2cccc(-n3cc4c(n3)C(c3ccccc3)CC4)c2)c1` (stereo not drawn) [Compound 34, 2-(3-((5-methylpyridin-3-yl)ethynyl)phenyl)-6-phenyl-2,4,5,6-tetrahydrocyclopenta[c]pyrazole], the EC50 was at most 0.1 µM. With `Nc1ccc(C#Cc2cncc(-n3cc4c(n3)C(c3ccccc3)CC4)c2)nn1` (stereo not drawn) [Compound 17, 6-((5-(6-phenyl-5,6-dihydrocyclopenta[c]pyrazol-2 (4H)-yl)pyridin-3-yl)ethynyl)pyridazine-3-amine] the figure was at most 0.1 µM. Consider `C(#Cc1cnc2cccnn12)c1cccc(-n2nc3c(n2)C(c2ccccc2)CC3)c1` (stereo not drawn) [Compound 53, 3-((3-(4-phenyl-5,6-dihydrocyclopenta[d][1,2,3]triazol-2 (4H)-yl)phenyl)ethynyl)imidazo[1,2-b]pyridazine], for which the concentration giving a half-maximal response (EC50) was at most 0.1 µM. With `Nc1ncc(C#Cc2cncc(-n3cc4c(n3)C(c3ccccc3)CC4)n2)cn1` (stereo not drawn) [Compound 29], the 50% effective concentration (EC50) is at most 0.1 µM. With `Nc1cnc(C#Cc2cncc(-n3cc4c(n3)C(c3ccccc3)CC4)c2)cn1` (stereo not drawn) [Compound 18, 5-((5-(6-phenyl-5,6-dihydrocyclopenta[c]pyrazol-2 (4H)-yl)pyridin-3-yl)ethynyl)pyrazine-2-amine] the figure was at most 0.1 µM; with `Cc1ncc(C#Cc2cnc(N)nc2)cc1-n1nc2c(n1)C(C1CCCCC1)CC2` (stereo not drawn) [Compound 64, 5-((5-(4-cyclohexyl-5,6-dihydrocyclopenta[d][1,2,3]triazol-2 (4H)-yl)-6-methylpyridin-3-yl)ethynyl)pyrimidin-2-amine], at most 0.1 µM; with `Nc1ncc(C#Cc2cncc(-n3cc4c(n3)C(c3cncc(F)c3)CC4)c2)cn1` (stereo not drawn) [Compound 19, 5-((5-(6-(5-fluoropyridin-3-yl)-5,6-dihydrocyclopenta[c]pyrazol-2 (4H)-yl)pyridin-3-yl)ethynyl)pyrimidin-2-amine], at most 0.1 µM.

For the compound `Nc1ncc(C#Cc2cncc(-n3cc4c(n3)[C@H](c3cccc(F)c3)CC4)c2)cn1` [Compound 46], the EC50 is at most 0.1 µM. Take `C(#Cc1cnc2cccnn12)c1cncc(-n2cc3c(n2)C(c2ccccc2)CC3)n1` (stereo not drawn) [Compound 26, 3-((6-(6-phenyl-5,6-dihydrocyclopenta[c]pyrazol-2 (4H)-yl)pyrazin-2-yl)ethynyl)imidazo[1,2-b]pyridazine]: the EC50 was at most 0.1 µM. With `Cc1ccc(C#Cc2cccc(-n3cc4c(n3)C(c3ccccc3)CC4)c2)cn1` (stereo not drawn) [Compound 35, 2-(3-((6-methylpyridin-3-yl)ethynyl)phenyl)-6-phenyl-2,4,5,6-tetrahydrocyclopenta[c]pyrazole] the figure was at most 0.1 µM; with `Cn1nccc1C#Cc1cccc(-n2cc3c(n2)C(c2ccccc2)CC3)c1` (stereo not drawn) [Compound 23, 2-(3-((1-methyl-1H-pyrazole-5-yl)ethynyl)phenyl)-6-phenyl-2,4,5,6-tetrahydrocyclopenta[c]pyrazole], at most 0.1 µM. In the case of `C(#Cc1cnc2cccnn12)c1cc(-n2cc3c(n2)C(c2ccccc2)CC3)ncn1` (stereo not drawn) [Compound 8, 3-((6-(6-phenyl-5,6-dihydrocyclopenta[c]pyrazol-2 (4H)-yl)pyrimidine-4-yl)ethynyl)imidazo[1,2-b]pyridazine], the concentration for a half-maximal effect (EC50) lay in the range of 0.1 to 1 µM. In the case of `Clc1ncc(C#Cc2cncc(-n3cc4c(n3)C(c3ccccc3)CC4)c2)cn1` (stereo not drawn) [Compound 41, 2-(5-((2-chloropyrimidin-5-yl)ethynyl)pyridin-3-yl)-6-phenyl-2,4,5,6-tetrahydrocyclopenta[c]pyrazole], the EC50 lay in the range of 0.1 to 1 µM. To `Nc1ncc(C#Cc2cncc(-n3cc4c(n3)[C@H](c3cc(F)cc(F)c3)CC4)c2)cn1` [Compound 50, (S)-5-((5-(6-(3,5-difluorophenyl)-5,6-dihydrocyclopenta[c]pyrazol-2 (4H)-yl)pyridin-3-yl)ethynyl)pyrimidin-2-amine] belongs at most 0.1 µM; to `Nc1ncc(C#Cc2cncc(-n3cc4c(n3)[C@@H](c3ccccc3)CC4)c2)cn1` [Compound 13, (R)-5-((5-(6-phenyl-5,6-dihydrocyclopenta[c]pyrazol-2 (4H)-yl)pyridin-3-yl)ethynyl)pyrimidin-2-amine], at most 0.1 µM; to `Cn1cc(C#Cc2cncc(-n3cc4c(n3)[C@H](c3ccccc3)CC4)c2)cnc1=O` [Compound 21, (S)-1-methyl-5-((5-(6-phenyl-5,6-dihydrocyclopenta[c]pyrazol-2 (4H)-yl)pyridin-3-yl)ethynyl)pyrimidine-2 (1H)-one], 0.1 to 1 µM.
